Assay results published in US6939874B2, “Substituted pyrimidinyl derivatives and methods of use” (Amgen Inc., priority 2001, dated 2005).
pIC50: −log10 of the molar value.

The molecules below were run on 3T3 (assay: IGF-1-induced DNA synthesis (3H-thymidine incorporation)). Settings: NIH3T3, activated with 50 ng/mL IGF-1, read-out: inhibited 3T3 proliferation.
Type: cell-based
Procedure: IGF-1-Induced DNA Synthesis.
Human tumor cell lines or a rat fibroblast cell line are plated out in flat-well plates in complete medium and allowed to adhere overnight. The cells are then starved in medium containing 0.1% bovine serum albumin (BSA) overnight, pre-incubated for 1 h with or without dilutions of compound, then activated overnight with 50 ng/mL insulin-like growth factor (IGF-1). Proliferation is determined by the level of ^3H-thymidine incorporation into DNA.
With `COc1cc(Nc2nccc(Nc3cnc4ccccc4c3)n2)ccc1/C=C/C(=O)N1CCCC1` [Example 148, 3-{2-Methoxy-4-[4-(quinolin-3-ylamino)-pyrimidin-2-ylamino]-phenyl}-1-pyrrolidin-1-yl-propenone] the pIC50 was over 6.82.
Work on `c1ccc2ncc(Nc3ccnc(Nc4ccc(OCCN5CCCCC5)cc4)n3)cc2c1` [Example 99, N^2-(4-((2-(1-Piperidinyl)ethyl)oxy)phenyl)-N^4-(3-quinolinyl)-2,4-pyrimidinediamine] yielded a pIC50 of over 6.82.
`COc1cc(Nc2nccc(Nc3cnc4ccccc4c3)n2)ccc1CCC(=O)N1CCCC1` [Example 149, 3-{2-Methoxy-4-[4-(quinolin-3-ylamino)-pyrimidin-2-ylamino]-phenyl}-1-pyrrolidin-1-yl-propanone] gave a pIC50 of over 6.82.
`COc1cc(Nc2nccc(Nc3ccc4nc(C)ccc4c3)n2)cc(OC)c1OC` [Example 118, N^4-(2-Methyl-6-quinolinyl)-N^2-(3,4,5-tris(methoxy)phenyl)-2,4-pyrimidinediamine] showed a pIC50 of over 6.82.
For `COc1cc(Nc2nccc(Nc3cnc4ccccc4c3)n2)ccc1C(N)=O` [Example 94, 2-(Methoxy)-4-((4-(3-quinolinylamino)-2-pyrimidinyl)amino)benzamide], the pIC50 was over 6.82.
Molecule `COc1cc(Nc2nccc(Nc3ccc4ncccc4c3)n2)cc(OC)c1OC` [Example 14, N^4-quinolin-6-yl-N^2-(3,4,5-trimethoxyphenyl)-pyrimidine-2,4-diamine] has a pIC50 of over 6.82.
In the case of `c1ccc2ncc(Nc3ccnc(Nc4ccc(OCCCN5CCCCC5)cc4)n3)cc2c1` [Example 98, N^2-[4-(3-Piperidin-1-yl-propoxy)-phenyl]-N^4-4-quinolin-3-yl-pyrimidine-2,4-diamine], the pIC50 was over 6.82.
For `c1cc(Nc2nccc(Nc3ccc4ncccc4c3)n2)cc(-c2cnco2)c1` [Example 105, N^2-(3-(1,3-oxazol-5-yl)phenyl)-N^4-(6-quinolinyl)-2,4-pyrimidinediamine], the pIC50 was over 6.82.
`COc1ccc(Nc2nccc(Nc3cnc4ccccc4c3)n2)cc1CCN(C)C` [Example 100] gave a pIC50 of over 6.82.
Work on `CC(=O)N1CC(C)(C)c2ccc(Nc3nccc(Nc4cnc5ccccc5c4)n3)cc21` [Example 110, N^2-(1-acetyl-3,3-dimethyl-2,3-dihydro-1H-indol-6-yl)-N^4-(3-quinolinyl)-2,4-pyrimidinediamine] yielded a pIC50 of over 6.82.
Molecule `COc1cc(C)c(Nc2nccc(Nc3cnc4ccccc4c3)n2)cc1OC` [Example 20, N^2-(3,4-dimethoxy-6-methylphenyl)-N^4-quinolin-3-yl-pyrimidine-2,4-diamine] has a pIC50 of over 6.82.
With `COc1cc(Nc2nccc(Nc3cnc4ccccc4c3)n2)ccc1OCCC1CCN(c2nccc(Nc3cnc4ccccc4c3)n2)CC1` [Example 151, N^2-[3-Methoxy-4-(2-{1-[4-(quinolin-3-ylamino)-pyrimidin-2-yl]-piperidin-4-yl}-ethoxy)-phenyl]-N^4-quinolin-3-yl-pyrimidine-2,4-diamine] the pIC50 was over 6.82.
With `COc1cc(Nc2nccc(Nc3cnc4ccccc4c3)n2)ccc1CCCN1CCCC1` [Example 150, N^2-[3-Methoxy-4-(3-pyrrolidin-1-yl-propyl)-phenyl]-N-4-quinolin-3-yl-pyrimidine-2,4-diamine] the pIC50 was over 6.82.
For `CC(=O)c1ccc(Nc2nccc(Nc3cnc4ccccc4c3)n2)cc1` [Example 59, 1-(4-((4-(3-quinalinylamino)-2-pyrimidinyl)amino)phenyl)ethanone], the pIC50 was over 6.82.
`COc1cc(C)c(Nc2nccc(Nc3cnc4ccc(OC(F)(F)F)cc4c3)n2)cc1OC` [Example 140, N^2-(2-Methyl-4,5-dimethoxyphenyl)-N^4-(6-trifluoromethoxy-3-quinolinyl)-2,4-pyrimidinediamine] showed a pIC50 of over 6.82.
Work on `COc1cc(Nc2nccc(Nc3cnc4ccc(O)cc4c3)n2)cc(OC)c1OC` [Example 135, N^4-(6-Hydroxy-quinolin-3-yl)-N^2-(3,4,5-tris(methoxy)phenyl)-2,4-pyrimidinediamine] yielded a pIC50 of over 6.82.
`c1ccc2ncc(Nc3ccnc(Nc4ccc(N5CCOCC5)cc4)n3)cc2c1` [Example 48, N^2-(4-(4-morpholinyl)phenyl)-N -(3-quinolinyl)-2,4-pyrimidinediamine] showed a pIC50 of over 6.82.
For `c1cc(Nc2nccc(Nc3cnc4ccccc4c3)n2)cc(-c2cnco2)c1` [Example 104, N^2-(3-(1,3-oxazol-5-yl)phenyl)-N^4-(3-quinolinyl)-2,4-pyrimidinediamine], the pIC50 was over 6.82.
`COc1cc(Nc2nccc(Nc3cnc4ccccc4c3)n2)cc(OC)c1OC` [Example 1, N^4-Quinolin-3-yl-N^2-(3,4,5-trimethoxyphenyl)pyrimidine-2,4-diamine] showed a pIC50 of over 6.82.
`c1ccc2ncc(Nc3ccnc(Nc4ccc(N5CCOCC5)nc4)n3)cc2c1` [Example 49, N^2-(6-(4-morpholinyl)-3-pyridinyl)-N^4-(3-quinolinyl)-2,4-pyrimidinediamine] showed a pIC50 of over 6.82.
For `COc1cc(Nc2nccc(Nc3cnc4ccccc4c3)n2)ccc1OCCN1CCN(c2nccc(Nc3cnc4ccccc4c3)n2)CC1` [Example 132, N^2-[3-Methoxy-4-(2-{4-[4-(quinolin-3-ylamino)-pyrimidin-2-yl]-piperazin-1-yl}-ethoxy)-phenyl]-N^4-quinolin-3-yl-pyrimidine-2,4-diamine], the pIC50 was over 6.82.
`COc1ccc2ncc(Nc3ccnc(Nc4cc(OC)c(OC)c(OC)c4)n3)cc2c1` [Example 134, N^4-(6-Methoxy-quinolin-3-yl)-N^2-(3,4,5-tris(methoxy)phenyl)-2,4-pyrimidinediamine] showed a pIC50 of over 6.82.
With `COc1cc(Nc2nccc(Nc3cnc4ccc(OC(F)(F)F)cc4c3)n2)cc(OC)c1OC` [Example 139, N^2-(3,4,5-Tris(methoxy)phenyl)-N^4-(6-trifluoromethoxy-3-quinolinyl)-2,4-pyrimidinediamine] the pIC50 was over 6.82.
`COc1ccc2ncc(Nc3ccnc(Nc4cc(OC)c(OC)cc4C)n3)cc2c1` [Example 137, N^4-(6-Methoxy-3-quinolinyl)-N^2-(2-methyl-4,5-dimethoxyphenyl)-2,4-pyrimidinediamine] showed a pIC50 of over 6.82.
For `COc1cc(Nc2nccc(Nc3cc4ccccc4c(OC)n3)n2)cc(OC)c1OC` [Example 130, N^4-(1-Methoxy-isoquinolin-3-yl)-N^2-(3,4,5-trimethoxy-phenyl)-pyrimidine-2,4-diamine], the pIC50 was over 6.82.
Work on `CN1CCN(c2ccc(Nc3nccc(Nc4cnc5ccccc5c4)n3)cc2)CC1` [Example 84, N^2-(4-(4-methyl-1-piperazinyl)phenyl)-N^4-(3-qulnolinyl)-2,4-pyrimidinediamine] yielded a pIC50 of over 6.82.
